Converted amounts (≈) assume the structure as drawn. Like-named read-outs stand apart in the source and are kept apart here.
How the values were obtained:
[1] = system: K562 cells (human chronic myeloid leukemia cell line); assay: Growth-inhibiting activity against animal cells (WST-8), K562; format: cell-based
Description: HL-60 cells (human acute promyelocytic leukemia cell line) and K562 cells (human chronic myeloid leukemia cell line) were maintained in a culture medium in which RPMI1640 medium (manufactured by Invitrogen) was added with 10% fetal bovine serum (manufactured by Nichirei), 0.5% penicillin/streptomycin solution (manufactured by Invitrogen) at 37° C. under a humidified culture of 5% CO2. tsFT210 cells (mouse breast cancer cells CDC2 temperature sensitive strain) were maintained in a culture medium in which RPMI1640 medium (manufactured by Invitrogen) was added with 5% calf serum (manufactured by Hyclone) and 0.5% penicillin/streptomycin solution at 32° C. under a humidified culture of 5% CO2.
HL-60 cells and K562 cells were seeded in a 96-well plate (manufactured by IWAKI) so as to be 1.5×10^4 cells/well/100 μl. tsFT210 cells were seeded in a 96-well plate so as to be 1.6×10^4 cell/well/100 μl. Each of the agents in Table 5 was added at 0.5% (v/v). HL-60 cells and K562 cells were maintained at 37° C. under a humidified culture of 5% CO2 and tsFT210 cells were maintain at 32° C. under a humidified culture of 5% CO2. Forty eight hours after addition of the agent, 10 μl of a reagent SF solution for counting live cells (WST-8 reagent, manufactured by Nakarai tesque) was added to each well. HL-60 cells and K562 cells were maintained at 37° C. under a humidified culture of 5% CO2 for 30 minutes and tsFT210 cells were maintain at 32° C. under a humidified culture of 5% CO2 for one hour. After the reaction, absorbance at 450 nm was measured using a microplate reader (manufactured by PerkinElmer) and a cell proliferation rate was determined from the measurement value.

[2] = system: bone metastasis of tumors; details: background art, Patent Document 1; cited from earlier work
osteoclasts = details: background art, Patent Document 1; cited from earlier work
[3] = target: T1, Isoleucyl tRNA synthetase (Homo sapiens, UniProt P41252); assay: Inhibitory activity against isoleucyl tRNA synthetase; format: biochemical; details: for IC50: HT1080 cell lysate, [3H]isoleucine, 25° C., 20 minutes, read-out: IRS IC50 (converted)
T1 construct: 10 μg protein (HT1080 cell lysate); endogenous in cells; host or cells: HT1080 cell lysate
T1 sequence (P41252 1-1262): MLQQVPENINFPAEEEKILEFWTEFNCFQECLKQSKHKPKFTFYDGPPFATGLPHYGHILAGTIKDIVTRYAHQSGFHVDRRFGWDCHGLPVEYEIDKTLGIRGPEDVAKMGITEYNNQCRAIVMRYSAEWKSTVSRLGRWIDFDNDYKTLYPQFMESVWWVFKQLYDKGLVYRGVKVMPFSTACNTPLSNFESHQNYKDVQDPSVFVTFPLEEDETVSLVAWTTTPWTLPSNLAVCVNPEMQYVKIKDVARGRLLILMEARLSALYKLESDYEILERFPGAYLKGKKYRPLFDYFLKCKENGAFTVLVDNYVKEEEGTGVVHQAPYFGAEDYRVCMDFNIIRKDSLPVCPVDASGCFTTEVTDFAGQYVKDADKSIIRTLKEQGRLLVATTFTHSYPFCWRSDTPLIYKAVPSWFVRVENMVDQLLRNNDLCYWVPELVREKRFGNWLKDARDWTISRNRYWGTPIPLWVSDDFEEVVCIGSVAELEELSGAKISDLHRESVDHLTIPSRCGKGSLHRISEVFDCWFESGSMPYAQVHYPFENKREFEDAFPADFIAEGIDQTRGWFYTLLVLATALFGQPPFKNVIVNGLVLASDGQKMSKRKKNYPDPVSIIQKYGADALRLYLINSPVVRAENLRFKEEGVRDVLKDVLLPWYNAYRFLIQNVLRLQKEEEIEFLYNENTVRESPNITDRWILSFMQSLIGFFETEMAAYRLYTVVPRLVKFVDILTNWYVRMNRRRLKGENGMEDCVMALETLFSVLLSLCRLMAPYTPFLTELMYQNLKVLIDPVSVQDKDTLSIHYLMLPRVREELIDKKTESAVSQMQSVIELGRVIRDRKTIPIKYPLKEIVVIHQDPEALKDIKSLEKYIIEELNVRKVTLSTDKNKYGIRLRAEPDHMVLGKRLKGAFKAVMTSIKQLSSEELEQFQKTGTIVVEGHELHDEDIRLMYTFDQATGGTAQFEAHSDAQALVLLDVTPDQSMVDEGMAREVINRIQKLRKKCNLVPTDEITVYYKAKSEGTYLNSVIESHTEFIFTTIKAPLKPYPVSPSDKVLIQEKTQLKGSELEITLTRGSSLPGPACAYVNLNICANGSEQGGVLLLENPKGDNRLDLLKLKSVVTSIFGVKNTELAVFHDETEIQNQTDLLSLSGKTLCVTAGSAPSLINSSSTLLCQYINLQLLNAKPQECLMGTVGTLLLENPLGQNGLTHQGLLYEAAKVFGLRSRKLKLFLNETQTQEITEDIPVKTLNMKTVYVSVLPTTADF
Description: To a solution for enzymatic reaction [20 mM imidazole, pH 7.5, 75 mM MgCl2, 0.5 mM DTT, 1 U/ml tRNA (E. coli origin, manufactured by Sigma), 3 mM ATP, 1 μM isoleucine, 10 μCi/ml [^3H]isoleucine (manufactured by GE Healthcare), 10 μg protein (HT1080 cell lysate)], each of the agents in Table 5 was added at 1% (v/v) so as to attain a total amount of 100 μl and a reaction was carried out at 25° C. for 20 minutes. One mg/ml BSA solution (400 μl) and 10% TCA solution (500 μl) were then added thereto to terminate the reaction and left to stand at 4° C. overnight. A precipitate obtained by a centrifugal operation was transferred onto GF-C filter (manufactured by Whatman), washed three times with 5% TCA solution, followed by drying the filter. Two milliliters of aquasol-2 (manufactured by PerkinElmer) and the filter were placed in a vial and vigorously stirred, and then the amount of [^3H]isoleucine was measured by a liquid scintillation counter (manufactured by Beckman) to determine a rate of enzyme activity.

[4] = K562, 48 h, read-out: K562 IC50

| Structure (SMILES) | IC50 [1, 4] [µg/mL] | bone metastasis of tumors (in words) [2] | apoptosis of osteoclasts (in words) (osteoclasts) | IC50 [3] [nM] | IC50 ([1]; K562 cells, 48 hours after addition of the agent, WST-8, read-out: K562 IC50) [µg/mL] | enzyme inhibiting activity against the target molecule IRS (in words) ([3]; as compared with RM-A) |
| --- | --- | --- | --- | --- | --- | --- |
| CCCC[C@@]1(OC(=O)CCC(=O)O)CC[C@]2(CC[C@H](C)[C@@H](C/C=C(C)/C=C/[C@H](O)[C@@H](C)/C=C/C(=O)O)O2)O[C@H]1/C=C/C(C)=C/C(=O)O [RM-A, Reveromycin A] | 4.9 (≈ 7.42 µM) | suppress bone metastasis of tumors | induce apoptosis selectively for osteoclasts at low concentrations | 9.38 |  |  |
| CCCCCC[C@@]1(OC(=O)CCC(=O)O)CC[C@]2(CC[C@H](C)[C@@H](C/C=C(C)/C=C/[C@H](O)[C@@H](C)/C=C/C(=O)O)O2)O[C@H]1/C=C/C(C)=C/C(=O)O [RM-E] | 1.9 (≈ 2.76 µM) |  |  | 4.06 |  |  |
| CCCC[C@H]1CC[C@]2(CC[C@H](C)[C@@H](C/C=C(C)/C=C/[C@H](O)[C@@H](C)/C=C/C(=O)OCC)O2)O[C@H]1/C=C/C(C)=C/C(=O)O [RM-T ethyl-ester] |  |  |  | 349 | 0.7 (≈ 1.22 µM) |  |
| CCCCC1CCC2(CCC(C)C(C/C=C(C)/C=C/C(O)C(C)/C=C/C(=O)O)O2)OC1/C=C/C(C)=C/C(=O)O (centres unmarked) [RM-T] | 0.7 (≈ 1.29 µM) |  |  | 0.367 |  | higher |
